Results on 23 molecules are retold here after patent US10844064B2, “sGC stimulators” (Cyclerion Therapeutics, Inc., priority 2014, dated 2020).

Molecules are shown by their SMILES. Values joined by “and” are separate entries in the source; they are usually repeats but may differ in a detail not shown here. Identical values can stand only once. Bounds are passed on as bounds.

The target in one test is T1, sGC enzyme (Homo sapiens, UniProt Q02108+Q02153).
T1 construct: host or cells: HEK293 expressing GloSensor 40F cGMP
T1 sequence (Q02108 1-690): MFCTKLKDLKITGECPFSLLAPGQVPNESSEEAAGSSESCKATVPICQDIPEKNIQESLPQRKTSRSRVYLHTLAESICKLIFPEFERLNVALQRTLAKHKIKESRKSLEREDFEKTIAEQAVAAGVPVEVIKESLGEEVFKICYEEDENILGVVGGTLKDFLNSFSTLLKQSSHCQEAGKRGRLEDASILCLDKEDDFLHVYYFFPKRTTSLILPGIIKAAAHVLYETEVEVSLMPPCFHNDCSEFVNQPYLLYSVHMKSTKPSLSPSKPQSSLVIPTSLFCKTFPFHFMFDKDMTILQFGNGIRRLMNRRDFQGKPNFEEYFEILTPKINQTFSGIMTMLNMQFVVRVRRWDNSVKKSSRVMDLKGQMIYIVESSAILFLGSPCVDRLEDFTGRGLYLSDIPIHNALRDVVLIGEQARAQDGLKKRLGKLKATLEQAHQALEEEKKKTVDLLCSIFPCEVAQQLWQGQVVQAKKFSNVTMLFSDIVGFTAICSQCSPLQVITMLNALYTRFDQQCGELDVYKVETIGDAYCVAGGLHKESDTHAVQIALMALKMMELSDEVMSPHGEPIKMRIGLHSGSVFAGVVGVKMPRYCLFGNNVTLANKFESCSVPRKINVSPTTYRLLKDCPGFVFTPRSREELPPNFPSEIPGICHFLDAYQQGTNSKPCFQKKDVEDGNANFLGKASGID
T1 sequence (Q02153 1-619): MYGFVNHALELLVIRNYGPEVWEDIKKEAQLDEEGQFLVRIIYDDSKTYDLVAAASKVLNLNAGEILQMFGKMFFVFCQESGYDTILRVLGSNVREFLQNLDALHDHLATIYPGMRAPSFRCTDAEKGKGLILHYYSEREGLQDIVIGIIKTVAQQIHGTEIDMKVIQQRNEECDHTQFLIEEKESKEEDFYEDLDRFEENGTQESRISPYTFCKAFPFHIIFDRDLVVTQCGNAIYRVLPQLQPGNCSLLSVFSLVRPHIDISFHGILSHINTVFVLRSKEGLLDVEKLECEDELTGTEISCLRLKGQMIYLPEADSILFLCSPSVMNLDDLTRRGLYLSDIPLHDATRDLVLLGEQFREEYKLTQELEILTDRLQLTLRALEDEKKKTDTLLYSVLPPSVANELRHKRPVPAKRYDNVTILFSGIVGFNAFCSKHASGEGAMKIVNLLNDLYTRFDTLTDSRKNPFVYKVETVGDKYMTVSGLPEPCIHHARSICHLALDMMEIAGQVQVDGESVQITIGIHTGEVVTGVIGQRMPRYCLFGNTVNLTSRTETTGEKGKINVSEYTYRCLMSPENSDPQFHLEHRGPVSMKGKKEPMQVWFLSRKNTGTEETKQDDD
The test can be described thus: cGMP GloSensor cell-based assay, 384-well format (Example 2B). Particulars: HEK293 GloSensor 40F cGMP cells, 10 μM DETA-NONOate; 50% of high control response (Compound Y); read-out: sGC_HEK_GloSensor EC50/IC50 Abs (Norm) (nM) Binned. The protocol:
(§1) Data were normalized to a high control using the following equation: 100*(Sample—Low Control)/(High Control—Low Control), where the low control is the average of 16 samples treated with 1% DMSO, and the high control is the average of 16 samples treated with 30 μM of Compound Y depicted below. Data were fit using a 4-parameter fit (log(agonist) vs. response variable slope) using GraphPad Prism Software v.5. n=2 for all compounds. […] Compounds failing to elicit a minimum response of 50% are reported as >30 μM. For compounds run in duplicate or n higher than 2, the result herein given is the geometric mean of the several results obtained.
Human embryonic kidney cells (HEK293) cells expressing GloSensor™ 40F cGMP (Part No: CS182801, Promega) were used to evaluate the activity of test compounds. The luminescent biosensors (engineered luciferase) that were incorporated into these cells detect cGMP formed by the compounds stimulating the sGC enzyme and emit luminescence.
cGMP GloSensor cells were maintained in Dulbecco's Modification of Eagle's Medium (DMEM) supplemented with fetal bovine serum (FBS) (10% final) and hygromycine (200 μg/ml). The day before assay, cells were plated in DMEM with 10% FBS in a 50 μL volume at a density of 1.5×10^4 cells/well in a poly-D-lysine coated 384-well flat white-bottom plate (Corning Cat No 35661). Cells were incubated overnight at 37° C. in a humidified chamber with 5% CO2. The next day, medium was removed and cells were replaced with 40 μl/well of GloSensor™, […] (Promega Cat No E1291). Cells were treated for 90 minutes at 25° C. to allow the substrate to equilibrate in the cells. Test compounds and Diethylenetriamine NONOate (DETA-NONOate) was diluted to […] in serum-free CO2 independent medium and serally diluted at 4× dilutions to create 5× dose curve from which 10 ul was added to the wells (x uM concentration for test compound solution and 10 μM concentration for DETA-NONOate solution; wherein x is one of the following final concentrations).
For the kinetics studies, luminescense was measured right away for 0.2 sec per well with Envision (Perkin Elmer model No). For endpoint SAR screening, data were collected after 55 min incubation at room temperature.
Data analysis was carried out as indicated above in Example 2A.
With `Cc1cc(-c2nc(N)c3c(n2)NC(=O)C3(C)C)nn1Cc1ccccc1F` [Compound I-71, 4-amino-2-(1-(2-fluorobenzyl)-5-methyl-1H-pyrazol-3-yl)-5,5-dimethyl-5H-pyrrolo[2,3-d]pyrimidin-6(7H)-one], the EC50 was 100 to 1000 nM.

In the case of `Cc1cc(-c2ncc3c(n2)NC(=O)C3(C)C)nn1Cc1ccccc1F` [Compound I-72], the EC50 is < 100 nM and 100 to 1000 nM.

For another test, the target named is T2, soluble guanylate cyclase (sGC) (Homo sapiens, UniProt Q02108+Q02153).
T2 construct: endogenously expressing soluble guanylate cyclase (sGC); endogenous in cells; host or cells: HEK293
T2 sequence (Q02108 1-690): T1 sequence (Q02108 1-690)
T2 sequence (Q02153 1-619): T1 sequence (Q02153 1-619)
As to the kind of experiment: sGC-HEK-cGMP assay with LC/MS detection (Example 2A). The format is cell-based. Particulars: HEK293 cells, 10 μM DETA-NONOate, 20 min; concentration eliciting 50% of high control response (30 μM Compound Y); read-out: Absolute EC50 (nM) - binned. The procedure:
Human embryonic kidney cells (HEK293), endogenously expressing soluble guanylate cyclase (sGC), were used to evaluate the activity of test compounds. Compounds stimulating the sGC enzyme should cause an increase in the intracellular concentration of cGMP. HEK 293 cells were seeded in Dulbecco's Modification of Eagle's Medium supplemented with fetal bovine serum (10% final) and penicillin (100 U/mL)/streptomycin (100 μg/mL) in a 50 μL, volume at a density of 1.5×10^4 cells/well in a poly-D-lysine coated 384 well flat bottom plate. Cells were incubated overnight at 37° C. in a humidified chamber with 5% CO2. Medium was aspirated and cells were washed with 1× Hank's Buffered Saline Salt Solution (50 μL). Cells were then incubated for 15 minutes at 37° C. with 50 μL of a 0.5 mM 3-isobutyl-1-methylxanthine (IBMX) solution. Test article and Diethylenetriamine NONOate (DETA-NONOate) solutions (x μM concentration for test article solution and 10 μM concentration for DETA-NONOate solution; wherein x is one of the following concentrations);
were then added to the assay mixture and the resulting mixture incubated at 37° C. for 20 minutes. After the 20 minute incubation, the assay mixture was aspirated and 10% acetic acid containing 150 ng/mL+3-cGMP (internal standard for LCMS) (50 μL) was added to the cells. The plate was incubated at 4° C. for 30 minutes in the acetic acid solution to stop the reaction and lyse the cells. The plates were then centrifuged at 1,000 g for 3 minutes at 4° C. and the supernatant transferred to a clean reaction plate for LCMS analysis.
cGMP concentrations were determined from each sample using the LCMS conditions below (Table 2) and calculated standard curve. The standard curve was prepared in 10% acetic acid with 150 ng/mL+3cGMP (isotopically labelled cGMP with a weight 3 units higher than wild type) with the following final concentrations of cGMP in ng/mL: 1, 5, 10, 50, 100, 250, 500, 1000, 2000.
as §1
Take `COc1cc(-c2nc(N)c3c(n2)NC(=O)C3(C)c2nnc(C)o2)nn1Cc1ccccc1F` (stereo not drawn) [Compound I-1, 4-amino-2-(1-(2-fluorobenzyl)-5-methoxy-1H-pyrazol-3-yl)-5-methyl-5-(5-methyl-1,3,4-oxadiazol-2-yl)-5H-pyrrolo[2,3-d]pyrimidin-6(7H)-one]: the EC50 was below 100 nM.

With `OCCn1nnc2cnc(-c3cc(-c4ccon4)n(Cc4ccccc4F)n3)nc21` [Compound I-2], the EC50 was above 1000 nM.

Take `OC(Cn1nnc2cnc(-c3cc(-c4ccon4)n(Cc4ccccc4F)n3)nc21)(C(F)(F)F)C(F)(F)F` [Compound I-3]: the EC50 is above 1000 nM.

For `CC1(C)C(=O)N(CCO)c2nc(-c3cc(-c4ccon4)n(Cc4ccccc4F)n3)nnc21` [Compound I-4], the EC50 was above 1000 nM.

On to `COC(=O)NS(=O)(=O)Nc1nc(-c2cc(-c3ccon3)n(Cc3ccccc3F)n2)nc2c1C(C)(C#N)C(=O)N2` (stereo not drawn) [Compound I-5], for which the EC50 was in the range of 100 to 1000 nM.

As to `CC1(C)C(=O)Nc2nc(-c3cc(-c4ccon4)n(Cc4ccccc4F)n3)nc(NCCO)c21` [Compound I-6], the EC50 was in the range of 100 to 1000 nM.

For `CC1(C(=O)NCCO)C(=O)Nc2nc(-c3cc(-c4ccon4)n(Cc4ccccc4F)n3)nc(NCCO)c21` (stereo not drawn) [Compound I-7], the EC50 is above 1000 nM.

For `CC1(C)C(=O)Nc2nc(-c3cc(-c4ccon4)n(Cc4ccccc4F)n3)nc(NCC(O)(C(N)=O)C(F)(F)F)c21` (stereo not drawn) [Compound I-8], the EC50 lay within 100 to 1000 nM.

As for `CCOC(=O)C1(C)C(=O)Nc2nc(-c3ccn(Cc4ccccc4F)n3)nc(N)c21` (stereo not drawn) [Compound I-13, ethyl 4-amino-2-(1-(2-fluorobenzyl)-1H-pyrazol-3-yl)-5-methyl-6-oxo-6,7-dihydro-5H-pyrrolo[2,3-d]pyrimidine-5-carboxylate], the EC50 was in the range of 100 to 1000 nM.

Consider `CC1(C(=O)NC2CC2)C(=O)Nc2nc(-c3ccn(Cc4ccccc4F)n3)nc(N)c21` (stereo not drawn) [Compound I-14, 4-amino-N-cyclopropyl-2-(1-(2-fluorobenzyl)-1H-pyrazol-3-yl)-5-methyl-6-oxo-6,7-dihydro-5H-pyrrolo[2,3-d]pyrimidine-5-carboxamide], for which the EC50 was above 1000 nM.

On to `Fc1ccccc1Cn1nc(-c2ncc3[nH]nnc3n2)cc1-c1ccon1` [Compound I-15], for which the EC50 is above 1000 nM.

For the molecule `CC1(C(N)=O)C(=O)Nc2nc(-c3cc(-c4ccon4)n(Cc4ccccc4F)n3)ncc21` (stereo not drawn) [Compound I-16], the EC50 is above 1000 nM.

In the case of `CCOC(=O)C1(C)C(=O)Nc2nc(-c3cc(-c4ccon4)n(Cc4ccccc4F)n3)nc(Br)c21` (stereo not drawn) [Compound I-17], the EC50 lay in the range of 100 to 1000 nM.

As for `CCOC(=O)C1(C)C(=O)Nc2nc(-c3cc(-c4ccon4)n(Cc4ccccc4F)n3)ncc21` (stereo not drawn) [Compound I-18], the EC50 lay in the range of 100 to 1000 nM.

Regarding `CCOC(=O)C1(C)C(=O)Nc2nc(-c3cc(C(C)=O)n(Cc4ccccc4F)n3)nc(N)c21` (stereo not drawn) [Compound I-19], the EC50 was below 100 nM.

Take `CC(=O)c1cc(-c2nc(N)c3c(n2)NC(=O)C3(C)C(N)=O)nn1Cc1ccccc1F` (stereo not drawn) [Compound I-20]: the EC50 was 100 to 1000 nM.

With `CCOC(=O)C1(C)C(=O)Nc2nc(-c3cc(COC)n(Cc4ccccc4F)n3)nc(N)c21` (stereo not drawn) [Compound I-21], the EC50 was above 1000 nM.

As to `COCc1cc(-c2nc(N)c3c(n2)NC(=O)C3(C)C(N)=O)nn1Cc1ccccc1F` (stereo not drawn) [Compound I-22], the EC50 was above 1000 nM.

Consider `COc1cc(-c2nc(N)c3c(n2)NC(=O)C3(C)C)nn1Cc1ccccc1F` [Compound I-23], for which the EC50 lay in the range of 100 to 1000 nM.

`Cc1cc(-c2nc(N)c3c(n2)NC(=O)C3(C)C)nn1Cc1ccccc1F` [Compound I-71, 4-amino-2-(1-(2-fluorobenzyl)-5-methyl-1H-pyrazol-3-yl)-5,5-dimethyl-5H-pyrrolo[2,3-d]pyrimidin-6(7H)-one]: the EC50 is above 1000 nM.

As to `Cc1cc(-c2ncc3c(n2)NC(=O)C3(C)C)nn1Cc1ccccc1F` [Compound I-72], the EC50 is above 1000 nM.

A further test has as its system lambs with acute pulmonary hypertension.
Assay: not given
The conditions noted are these: inhaled microparticles, awake lambs, U-46619 infusion to mean pulmonary arterial pressure 35 mm Hg; cited from earlier work.
Consider `Nc1nc(-c2nn(Cc3ccccc3F)c3ncccc23)ncc1C1CC1` [BAY 41-2272], for which the pulmonary vasodilation result is recorded as “dose dependent pulmonary vasodilation”.

Take `Nc1nc(-c2nn(Cc3ccccc3F)c3ncccc23)nc(N)c1N1CCOCC1` [BAY 41-8543]: the pulmonary vasodilation result is “dose dependent pulmonary vasodilation”.

Still in this test, the particulars now being: inhaled microparticles, awake lambs, U-46619 infusion; cited from earlier work.
Consider `Nc1nc(-c2nn(Cc3ccccc3F)c3ncccc23)ncc1C1CC1` [BAY 41-2272], for which the “effect on mean arterial pressure” value was “without significant effect” and the “transpulmonary cGMP release” value is reported as “increased transpulmonary cGMP release”.

On to `Nc1nc(-c2nn(Cc3ccccc3F)c3ncccc23)nc(N)c1N1CCOCC1` [BAY 41-8543], for which the “effect on mean arterial pressure” value is “without significant effect”, the systemic arterial oxygenation entry is “increased systemic arterial oxygenation” and the “transpulmonary cGMP release” value is “increased transpulmonary cGMP release”.
